Experimental data reported in publication PMC10518255, “A first-in-class pan-lysyl oxidase inhibitor impairs stromal remodeling and enhances gemcitabine response and survival in pancreatic cancer” (Nature Cancer, 2023).
Several values for one entry are separate records, joined by “and”; a condition that tells them apart may be missing. Equal values may be shown once.

Legend:
[1] = 3D cell viability assay (MTS, collagen); type: cell-based, mouse; settings: mouse, replicates
Procedure: (§1) The 3D cell viability assays were performed using cells embedded into polymerized collagen at 2.5 mg ml^−1. KPC CAFs and CCs were seeded at 10,000 cells per well in a 96-well plate. MTS solution (Promega) was added to the cells at a 1:20 dilution and cells were incubated at 37 °C for 1.5 h. Cell proliferation rates were measured by detecting the absorbance at 490 nm using a microplate reader and three biological repeats were performed.
(§2) Data presented as mean values +/− SD. f. […] Data presented as mean values +/− SD. […] Data presented as mean values +/− SD. […] Data presented as mean values +/− SD. Ordinary one-way ANOVA for multiple comparison test performed. Source data

KPC CCs = experiment: 3D cell viability assay (MTS, collagen); type: cell-based, mouse; settings: for 3D cell viability (MTS assay): KPC CC, replicates
Procedure: as §1, §2

KPC CAFs = experiment: 3D cell viability assay (MTS, collagen); type: cell-based, mouse; settings: for 3D cell viability (MTS assay): replicates
Procedure: as §1, §2

[2] = target: T1, bovine aorta extracted LOX (Bos taurus, UniProt P33072); experiment: Substrate competition assay versus putrescine dihydrochloride, amplex red (Extended Data Fig. 3b); type: biochemical
T1 construct: performed in an amplex red assay using bovine aorta extracted LOX; from tissue; host or cells: bovine aorta
Text: Similar to other fluoroallylamine-based amine oxidase inhibitors, the mode of inhibition is assumed to be a two-step mechanism (Fig. 2c), with PXS-5505 reacting with the unique LTQ cofactor found within the active site. The fluoroallylamine facilitates the formation of a covalent, irreversible bond. […] Furthermore, in jump dilution experiments, there is no significant recovery of activity following rapid dilution (LOXL1 (5 ± 5% recovery, n = 4), LOXL2 (7 ± 1.2% recovery, n = 3) and LOXL3 (11 ± 2% recovery, n = 3)).
as §2

DAO = target: T2, DAO (Homo sapiens, UniProt P19801); experiment: Substrate turnover by H2O2 release, amplex red coupled fluorometric activity assay (Extended Data Fig. 3a); type: biochemical
T2 sequence (P19801 20-751): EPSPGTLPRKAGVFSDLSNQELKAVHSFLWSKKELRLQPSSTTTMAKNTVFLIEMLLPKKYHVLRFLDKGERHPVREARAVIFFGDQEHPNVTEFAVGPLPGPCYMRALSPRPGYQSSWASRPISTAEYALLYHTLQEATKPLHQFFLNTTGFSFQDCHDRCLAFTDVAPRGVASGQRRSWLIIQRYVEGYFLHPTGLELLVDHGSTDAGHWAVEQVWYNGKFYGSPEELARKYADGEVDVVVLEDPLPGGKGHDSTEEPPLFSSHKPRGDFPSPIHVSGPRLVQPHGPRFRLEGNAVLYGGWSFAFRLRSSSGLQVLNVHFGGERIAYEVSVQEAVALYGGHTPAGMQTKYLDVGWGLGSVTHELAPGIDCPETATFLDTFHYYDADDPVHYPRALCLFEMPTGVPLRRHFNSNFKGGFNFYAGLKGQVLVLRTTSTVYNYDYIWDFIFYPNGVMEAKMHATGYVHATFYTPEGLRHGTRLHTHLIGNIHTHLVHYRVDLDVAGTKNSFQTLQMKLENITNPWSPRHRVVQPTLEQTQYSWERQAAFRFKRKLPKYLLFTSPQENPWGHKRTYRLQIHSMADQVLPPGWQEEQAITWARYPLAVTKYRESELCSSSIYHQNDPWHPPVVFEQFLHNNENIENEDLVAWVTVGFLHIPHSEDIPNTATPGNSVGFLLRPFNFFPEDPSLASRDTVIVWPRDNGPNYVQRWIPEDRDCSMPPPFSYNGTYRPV
Text: Specifically, BAPN is oxidized by diamine oxidase (DAO) and semicarbazide-sensitive amine oxidase (SSAO)/vascular adhesion protein 1 (VAP-1) in the vasculature (Extended Data Fig. 3a), which releases hydrogen […] (H2O2) and aldehyde in humans leading to toxicity.
as §2

T1 sequence (P33072 170-418): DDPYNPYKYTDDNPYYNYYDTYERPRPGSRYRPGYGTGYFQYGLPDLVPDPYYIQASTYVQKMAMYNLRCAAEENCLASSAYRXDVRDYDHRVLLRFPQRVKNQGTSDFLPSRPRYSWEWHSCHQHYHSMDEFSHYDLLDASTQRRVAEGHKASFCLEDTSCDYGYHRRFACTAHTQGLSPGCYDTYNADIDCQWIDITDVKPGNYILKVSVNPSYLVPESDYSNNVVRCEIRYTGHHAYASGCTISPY

Q: For `Cl.Cl.NC/C=C(\F)CS(=O)(=O)c1cccc2cccnc12.O` [PXS-5505, (Z)-3-fluoro-4-(quinolin-8-ylsulfonyl)but-2-en-1-amine dihydrochloride monohydrate], which viability ([1]; KPC CAFs embedded in polymerized collagen (3D), PXS-5505 3 (unit inferred)) is on record?
A: 97.2%

Q: What about the viability ([1]; KPC CAFs embedded in polymerized collagen (3D), PXS-5505 30 (unit inferred)) of the same molecule?
A: 87.5%

Q: What about the viability ([1]; KPC CAFs embedded in polymerized collagen (3D), PXS-5505 100 (unit inferred)) of the same molecule?
A: 99%

Q: And the viability ([1]; KPC cancer cells (CCs) embedded in polymerized collagen (3D), KPC CC, PXS-5505 0.3 (unit inferred))?
A: 97.5%

Q: What about the viability ([1]; KPC cancer cells (CCs) embedded in polymerized collagen (3D), KPC CC, PXS-5505 3 (unit inferred)) of the same molecule?
A: 108%

Q: And the viability ([1]; KPC cancer cells (CCs) embedded in polymerized collagen (3D), KPC CC, PXS-5505 30 (unit inferred))?
A: 100%

Q: And the viability ([1]; KPC cancer cells (CCs) embedded in polymerized collagen (3D), KPC CC, PXS-5505 100 (unit inferred))?
A: 96.7%

Q: What about the “3D cell viability (MTS assay)” value (KPC CCs; PXS-5505 0.3 (unit not given)) of the same molecule?
A: 101.864 and 94.0126

Q: What about the “3D cell viability (MTS assay)” value (KPC CCs; PXS-5505 3 (unit not given)) of the same molecule?
A: 104.713 and 92.4708

Q: What about the “3D cell viability (MTS assay)” value (KPC CCs; PXS-5505 30 (unit not given)) of the same molecule?
A: 96.3592 and 91.3434

Q: What about the “3D cell viability (MTS assay)” value (KPC CCs; PXS-5505 100 (unit not given)) of the same molecule?
A: 92.997 and 88.536

Q: What about the “3D cell viability (MTS assay)” value (KPC CCs; PXS-5505 300 (unit not given)) of the same molecule?
A: 102.736 and 92.2188 and 80.3582

Q: And the “effect on proliferation, 3D” value (KPC CCs; KPC CCs, up to 300 µM)?
A: nor did it show any effect on proliferation

Q: What about the “3D cell viability (MTS assay)” value (KPC CAFs; PXS-5505 0.3 (unit not given)) of the same molecule?
A: 102.654 and 114.604 and 89.88

Q: And the “3D cell viability (MTS assay)” value (KPC CAFs; PXS-5505 3 (unit not given))?
A: 96.8872 and 86.2796

Q: And the “3D cell viability (MTS assay)” value (KPC CAFs; PXS-5505 30 (unit not given))?
A: 93.0804 and 86.6488

Q: What about the “3D cell viability (MTS assay)” value (KPC CAFs; PXS-5505 100 (unit not given)) of the same molecule?
A: 93.525 and 85.922

Q: And the “3D cell viability (MTS assay)” value (KPC CAFs; PXS-5505 300 (unit not given))?
A: 102.9 and 101.619 and 82.2294

Q: And the “effect on proliferation, 3D” value (KPC CAFs; up to 300 µM)?
A: nor did it show any effect on proliferation

Q: And the substrate competition [2]?
A: substrate competition

Q: What about the “processing as a substrate by DAO” value (DAO) of the same molecule?
A: not processed as a substrate

Q: What about the “Turnover by DAO as measured by H2O2 release, mean” value (“Turnover by DAO as measured” for short) (DAO; listed as value 30 (unit not given)) of the same molecule?
A: 0.9677

Q: And the “Turnover by DAO as measured” value (DAO; listed as value 60 (unit not given))?
A: 0.9315

Q: What about the “Turnover by DAO as measured” value (DAO; listed as value 300 (unit not given)) of the same molecule?
A: 1.1475
